Target: T1, human liver glycogen phosphorylase a (HLGPa) (Homo sapiens, UniProt P06737)
T1 construct: creating a full-length cDNA fused at the 5′ end to codons for methionine-glycine-alanine-histidine; 6xHis tag (leader Met-Gly-Ala-His6-Gly-Gly) (N); made in house; host or cells: E. coli (bacterial expression plasmid pTXK1007LTev)
T1 sequence (P06737 2-847 limits assumed): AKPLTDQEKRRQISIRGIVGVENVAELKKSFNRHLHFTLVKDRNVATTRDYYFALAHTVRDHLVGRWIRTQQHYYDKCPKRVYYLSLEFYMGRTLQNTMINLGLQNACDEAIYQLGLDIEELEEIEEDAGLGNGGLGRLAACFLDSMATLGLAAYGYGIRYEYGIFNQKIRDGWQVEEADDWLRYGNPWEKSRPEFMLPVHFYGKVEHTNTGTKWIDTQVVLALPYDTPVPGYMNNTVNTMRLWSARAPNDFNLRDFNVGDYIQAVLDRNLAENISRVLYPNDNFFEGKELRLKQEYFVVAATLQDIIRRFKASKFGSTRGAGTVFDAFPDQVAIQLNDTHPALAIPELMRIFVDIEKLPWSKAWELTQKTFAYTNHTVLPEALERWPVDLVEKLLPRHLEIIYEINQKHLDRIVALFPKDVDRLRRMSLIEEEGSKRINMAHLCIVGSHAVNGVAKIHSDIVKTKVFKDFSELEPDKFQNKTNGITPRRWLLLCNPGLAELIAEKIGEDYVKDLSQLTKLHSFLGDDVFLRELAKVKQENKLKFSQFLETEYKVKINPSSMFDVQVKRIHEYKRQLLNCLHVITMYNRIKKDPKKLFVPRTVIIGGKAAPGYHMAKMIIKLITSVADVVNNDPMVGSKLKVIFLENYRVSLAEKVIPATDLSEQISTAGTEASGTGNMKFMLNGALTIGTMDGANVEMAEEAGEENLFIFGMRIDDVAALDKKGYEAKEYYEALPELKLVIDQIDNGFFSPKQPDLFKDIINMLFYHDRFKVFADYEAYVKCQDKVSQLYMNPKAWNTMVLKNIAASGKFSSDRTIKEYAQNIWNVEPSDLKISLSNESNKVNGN
Experiment: Human liver glycogen phosphorylase a enzymatic activity assay (coupled, fluorescent resorufin readout, with and without 10 mM glucose)
Assay type: biochemical
Details: human liver glycogen phosphorylase a; table does not say whether with or without 10 mM glucose

| SMILES | IC50 |
| --- | --- |
| COc1ccc(-c2ccc(C(=O)N[C@H](C(=O)O)C(C)(C)C)c(NC(=O)Nc3c(C)cc(C)cc3C)c2)cc1 [Example 202, 3-Methyl-N-{[4′-(methyloxy)-3-({[(2,4,6-trimethylphenyl)amino]carbonyl}amino)-4-biphenylyl]carbonyl}-L-valine] | 140 nM |
| O=C(Nc1cc(-c2ccccc2)ccc1C(=O)N[C@H](C(=O)O)C1CCCCC1)Nc1c(Cl)cccc1Cl [Example 203, (2S)-Cyclohexyl({[3-({[(2,6-dichlorophenyl)amino]carbonyl}amino)-4-biphenylyl]carbonyl}amino)ethanoic acid] | 75 nM |
| Cc1cc(C)c(NC(=O)Nc2cc(-c3ccc(OC(F)(F)F)cc3)ccc2C(=O)N[C@H](C(=O)O)C2CCCCC2)c(C)c1 [Example 204, (2S)-Cyclohexyl({[4′-[(trifluoromethyl)oxy]-3-({[(2,4,6-trimethylphenyl)amino]carbonyl}amino)-4-biphenylyl]carbonyl}amino)ethanoic acid] | 190 nM |
| COc1ccc(-c2ccc(C(=O)N[C@H](c3nn[nH]n3)C3CCCCC3)c(NC(=O)Nc3c(C)cc(C)cc3C)c2)cc1 [Example 205, N—[(S)-cyclohexyl(1H-tetrazol-5-yl)methyl]-4′-(methyloxy)-3-({[(2,4,6-trimethylphenyl)amino]carbonyl}amino)-4-biphenylcarboxamide] | 140 nM |
| CNC(=O)Nc1ccc(C(=O)N[C@H](C(=O)O)C2CCCCC2)c(NC(=O)Nc2c(C)cc(C)cc2C)c1 [Example 206] | 96 nM |
| CCCCN(CCCC)c1ccc(C(=O)N[C@H](C(=O)O)C2CCCCC2)c(NC(=O)Nc2c(C)cc(C)cc2C)c1 [Example 207, (2S)-Cyclohexyl({[4-(dibutylamino)-2-({[(2,4,6-trimethylphenyl)amino]carbonyl}amino)phenyl]carbonyl}amino)ethanoic acid] | 16100 nM |
| O=C(Nc1cc(F)ccc1C(=O)N[C@H](C(=O)O)C1CCCCC1)Nc1c(Cl)cc(OC(F)(F)F)cc1Cl [Example 208, (2S)-Cyclohexyl{[(2-{[({2,6-dichloro-4-[(trifluoromethyl)oxy]phenyl}amino)carbonyl]amino}-4-fluorophenyl)carbonyl]amino}ethanoic acid] | 130 nM |
| Cc1cc(C)c(NC(=O)Nc2cc(-c3ccc(F)c(F)c3)ccc2C(=O)N[C@H](C(=O)O)C2CCCCC2)c(C)c1 [Example 209, (2S)-Cyclohexyl({[3′,4′-difluoro-3-({[(2,4,6-trimethylphenyl)amino]carbonyl}amino)-4-biphenylyl]carbonyl}amino)ethanoic acid] | 14 nM |
| COc1ccc(-c2ccc(C(=O)N[C@H](C(=O)O)C3CCCC3)c(NC(=O)Nc3c(C)cc(C)cc3C)c2)cc1 [Example 210, (2S)-Cyclopentyl({[4′-(methyloxy)-3-({[(2,4,6-trimethylphenyl)amino]carbonyl}amino)-4-biphenylyl]carbonyl}amino)ethanoic acid] | 14 nM |
| Cc1cc(C)c(NC(=O)Nc2cc(F)ccc2C(=O)N[C@H](C(=O)O)C2CCCC2)c(C)c1 [Example 211, (2S)-Cyclopentyl({[4-fluoro-2-({[(2,4,6-trimethylphenyl)amino]carbonyl}amino)phenyl]carbonyl}amino)ethanoic acid] | 290 nM |
| O=C(Nc1cc(-c2ccc(F)c(F)c2)ccc1C(=O)N[C@H](C(=O)O)C1CCCCC1)Nc1c(Cl)cc(OC(F)(F)F)cc1Cl [Example 212, (2S)-Cyclohexyl{[(3-{[({2,6-dichloro-4-[(trifluoromethyl)oxy]phenyl}amino)carbonyl]amino}-3′,4′-difluoro-4-biphenylyl)carbonyl]amino}ethanoic acid] | 17 nM |
| Cc1cc(C)c(NC(=O)Nc2cc(-c3ccc(CN(C)C)cc3)ccc2C(=O)N[C@H](C(=O)O)C2CCCCC2)c(C)c1 [Example 213, (2S)-Cyclohexyl({[4′-[(dimethylamino)methyl]-3-({[(2,4,6-trimethylphenyl)amino]carbonyl}amino)-4-biphenylyl]carbonyl}amino)ethanoic acid] | 24 nM |
| O=C(Nc1cc(-c2ccccc2)ccc1C(=O)N[C@H](C(=O)O)C1CCCCC1)Nc1c(Cl)cc(OC(F)(F)F)cc1Cl [Example 214, (2S)-Cyclohexyl{[(3-{[({2,6-dichloro-4-[(trifluoromethyl)oxy]phenyl}amino)carbonyl]amino}-4-biphenylyl)carbonyl]amino}ethanoic acid] | 23 nM |
| COc1ccc(-c2ccc(C(=O)N[C@H](C(=O)O)C3CCCCC3)c(NC(=O)Nc3c(Cl)cc(OC(F)(F)F)cc3Cl)c2)cc1 [Example 215, (2S)-Cyclohexyl({[3-{[({2,6-dichloro-4-[(trifluoromethyl)oxy]phenyl}amino)carbonyl]amino}-4′-(methyloxy)-4-biphenylyl]carbonyl}amino)ethanoic acid] | 9 nM |
| Cc1cc(C)c(NC(=O)Nc2cc(-c3ccc(CN4CCCC4)cc3)ccc2C(=O)N[C@H](C(=O)O)C2CCCCC2)c(C)c1 [Example 216, (2S)-Cyclohexyl({[4′-(1-pyrrolidinylmethyl)-3-({[(2,4,6-trimethylphenyl)amino]carbonyl}amino)-4-biphenylyl]carbonyl}amino)ethanoic acid] | 6 nM |
| Cc1cc(C)c(NC(=O)Nc2cc(-c3ccc(CN4CCOCC4)cc3)ccc2C(=O)N[C@H](C(=O)O)C2CCCCC2)c(C)c1 [Example 217, (2S)-cyclohexyl({[4′-(4-morpholinylmethyl)-3-({[(2,4,6-trimethylphenyl)amino]carbonyl}amino)-4-biphenylyl]carbonyl}amino)ethanoic acid] | 9 nM |
| CCOc1ccc(-c2ccc(C(=O)N[C@H](C(=O)O)C3CCCCC3)c(NC(=O)Nc3c(C)cc(C)cc3C)c2)cc1 [Example 218, (2S)-Cyclohexyl({[4′-(ethyloxy)-3-({[(2,4,6-trimethylphenyl)amino]carbonyl}amino)-4-biphenylyl]carbonyl}amino)ethanoic acid] | 7 nM |
| CCCC[C@H](NC(=O)c1ccc(-c2ccc(OC)cc2)cc1NC(=O)Nc1c(C)cc(C)cc1C)C(=O)O [Example 219, N-{[4′-(methyloxy)-3-({[(2,4,6-trimethylphenyl)amino]carbonyl}amino)-4-biphenylyl]carbonyl}-L-norleucine] | 15 nM |
| Cc1cc(C)c(NC(=O)Nc2cc(S(C)(=O)=O)ccc2C(=O)N[C@H](C(=O)O)C2CCCCC2)c(C)c1 [Example 220, (2S)-Cyclohexyl({[4-(methylsulfonyl)-2-({[(2,4,6-trimethylphenyl)amino]carbonyl}amino)phenyl]carbonyl}amino)ethanoic acid] | 1960 nM |
| Cc1cc(C)c(NC(=O)Nc2cc(F)ccc2C(=O)NC2(C(=O)O)CCCCCC2)c(C)c1 [Example 221, 1-({[4-Fluoro-2-({[(2,4,6-trimethylphenyl)amino]carbonyl}amino)phenyl]carbonyl}amino)cycloheptane-carboxylic acid] | 300 nM |
| COc1ccc(-c2ccc(C(=O)NC3(C(=O)O)CCCCCC3)c(NC(=O)Nc3c(C)cc(C)cc3C)c2)cc1 [Example 222, 1-({[4′-(methyloxy)-3-({[(2,4,6-trimethylphenyl)amino]carbonyl}amino)-4-biphenylyl]carbonyl}amino)cycloheptanecarboxylic acid] | 24 nM |
| Cc1cc(C)c(NC(=O)Nc2cc(-c3ccc(F)cc3)ccc2C(=O)N[C@H](C(=O)O)C2CCCCC2)c(C)c1 [Example 223, (2S)-Cyclohexyl({[4′-fluoro-3-({[(2,4,6-trimethylphenyl)amino]carbonyl}amino)-4-biphenylyl]carbonyl}amino)ethanoic acid] | 9 nM |
| Cc1cc(C)c(NC(=O)Nc2cc(-c3ccc4c(c3)OCO4)ccc2C(=O)N[C@H](C(=O)O)C2CCCCC2)c(C)c1 [Example 224, (2S)-({[4-(1,3-Benzodioxol-5-yl)-2-({[(2,4,6-trimethylphenyl)amino]carbonyl}amino)phenyl]carbonyl}amino)(cyclohexyl)-ethanoic acid] | 3 nM |
| COc1ccc(-c2ccc(C(=O)N[C@H](C(=O)O)[C@@H](C)OC(C)(C)C)c(NC(=O)Nc3c(C)cc(C)cc3C)c2)cc1 [Example 225, O-(1,1-Dimethylethyl)-N-{[4′-(methyloxy)-3-({[(2,4,6-trimethylphenyl)amino]carbonyl}amino)-4-biphenylyl]carbonyl}-L-threonine] | 2 nM |
| Cc1cc(C)c(NC(=O)Nc2cc(F)ccc2C(=O)N[C@H](C(=O)O)[C@@H](C)OC(C)(C)C)c(C)c1 [Example 226, O-(1,1-Dimethylethyl)-N-{[4-fluoro-2-({[(2,4,6-trimethylphenyl)amino]carbonyl}amino)phenyl]carbonyl}-L-threonine] | 530 nM |

— patent US20070249670A1, “Glycogen Phosphorylase Inhibitor Compounds and Pharmaceutical Compositions Thereof” (SMITHKLINE BEECHAM CORPORATION, priority 2004, published 2007)
